Measurements from the supplement of paper PMC10307832.

What was measured:
Assay in all cases: relative viability (nuclei count vs DMSO), 5 days (fraction); higher = more cells survive
[1] = compound: C[As](C)SC[C@H](NC(=O)CC[C@H](N)C(=O)O)C(=O)NCC(=O)O [Darinaparsin] + O=C(c1cc(Cc2n[nH]c(=O)c3ccccc23)ccc1F)N1CCN(C(=O)C2CC2)CC1 [Olaparib] (partner 8 µM)
How it was run: (§1)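 After 5 days of treatment, lung cancer cells in 1536-well plates were fixed and stained in a single step (final 0.05% Triton X-100, 1% formaldehyde, 1 ug/ml Hoechst) and their nuclei counted on 4× images. Treatment had been applied by pin tool the day after seeding as one drug alone or as a fixed anchor-drug dose with five library-drug doses (not always all listed) in √10 steps. Relative viability is the nuclei count of treated wells divided by that of vehicle wells, and values are medians of duplicate plates.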

[2] = compound: C1CC2=C(C1)C=C(C=C2)OC3=NC(=C4C(=N3)N(C=N4)CC5=CC=C(C=C5)C6=CC=CC=C6)N[C@@H](CC7=CC=CC=C7)CO [QS11] + N=C(N)NC(=N)NCCc1ccccc1 [Phenformin] (partner 250 µM)
How it was run: as §1

[3] = compound: C[As](C)SC[C@H](NC(=O)CC[C@H](N)C(=O)O)C(=O)NCC(=O)O [Darinaparsin] + N=C(N)NC(=N)NCCc1ccccc1 [Phenformin] (partner 250 µM)
How it was run: as §1

[4] = compound: CC1=C(C=C(C=C1)NC(=O)C2=CC(=CC=C2)C(C)(C)C#N)NC3=CC4=C(C=C3)N=CN(C4=O)C [AZ628] + CS(=O)(=O)CCNCc1ccc(-c2ccc3ncnc(Nc4ccc(OCc5cccc(F)c5)c(Cl)c4)c3c2)o1 [Lapatinib] (partner 2 µM)
How it was run: as §1

Row | Cell Line | relative viability ([1]; first compound 0.08 µM) | relative viability ([1]; first compound 0.8 µM) | relative viability ([1]; first compound 2.53 µM) | relative viability ([1]; first compound 8 µM) | relative viability ([2]; first compound 0.08 µM) | relative viability ([2]; first compound 0.253 µM) | relative viability ([2]; first compound 0.8 µM) | relative viability ([2]; first compound 2.53 µM) | relative viability ([2]; first compound 8 µM) | relative viability ([3]; first compound 0.08 µM) | relative viability ([3]; first compound 0.8 µM) | relative viability ([3]; first compound 2.53 µM) | relative viability ([3]; first compound 8 µM) | relative viability ([4]; first compound 0.08 µM) | relative viability ([4]; first compound 0.253 µM) | relative viability ([4]; first compound 0.8 µM) | relative viability ([4]; first compound 2.53 µM) | relative viability ([4]; first compound 8 µM)
1 | HOP-62 | 0.56 | 0.487 | 0.402 | 0.525 | 0.677 | 0.743 | 0.657 | 0.497 | 0.669 | 0.964 | 0.759 | 0.494 | 0.8 | 1.12 | 0.978 | 1.01 | 0.957 | 0.631
2 | LC-2-ad | 0.739 | 0.748 | 0.669 | 0.719 | 0.535 | 0.482 | 0.535 | 0.551 | 0.599 | 0.614 | 0.5 | 0.564 | 0.484 | 0.949 | 0.867 | 0.446 | 0.72 | 0.474
3 | EPLC-272H | 0.659 | 0.958 | 0.514 | 0.615 | – | 0.327 | 0.312 | 0.287 | 0.304 | – | 0.237 | 0.251 | 0.267 | 0.837 | 0.88 | 1.08 | 0.932 | 0.54
4 | SW 900 | 0.837 | – | 0.85 | 0.773 | 0.54 | 0.578 | 0.709 | 0.417 | 0.402 | 0.836 | 0.475 | 0.701 | 0.643 | – | – | – | – | –
5 | EBC-1 | 0.811 | 0.731 | 0.603 | 0.511 | – | – | – | – | – | – | – | – | – | 0.219 | 0.205 | 0.251 | 0.22 | 0.199
6 | HCC-44 | 1.06 | 0.993 | 0.942 | 1.03 | 0.208 | 0.206 | 0.25 | 0.158 | 0.157 | 0.312 | 0.197 | 0.223 | 0.169 | 0.982 | 1.06 | 1.01 | 1.02 | 0.844
7 | NCI-H441 | 0.647 | 0.538 | 0.734 | 0.502 | 0.861 | 0.958 | 0.71 | 1.01 | 0.884 | 1.13 | 0.821 | 0.597 | 0.88 | – | – | – | – | –
8 | LU99A | 0.275 | 0.252 | 0.125 | 0.246 | 0.768 | 0.975 | 1.07 | 0.827 | 0.869 | 0.927 | 0.856 | 0.897 | 0.78 | 0.973 | 0.966 | 1.11 | 0.943 | 0.573
9 | NCI-H661 | 0.799 | 0.787 | 0.699 | 0.815 | 0.221 | 0.297 | 0.273 | 0.297 | 0.261 | 0.261 | 0.25 | 0.299 | 0.275 | 0.401 | 0.502 | 0.435 | 0.498 | 0.464
10 | PC-14 | 0.234 | 0.261 | 0.222 | 0.225 | 0.384 | 0.49 | 0.574 | 0.683 | 0.737 | 0.653 | 0.55 | 0.716 | 0.698 | 0.347 | 0.365 | 0.351 | 0.313 | 0.343
11 | SK-LU-1 | 0.613 | 0.431 | 0.407 | 0.562 | 0.527 | 0.557 | 0.587 | 0.404 | 0.456 | 0.777 | 0.417 | 0.384 | 0.743 | 0.498 | 0.705 | 0.755 | 0.834 | 0.603
12 | NCI-H1299 | 1.02 | 0.928 | 0.98 | 0.981 | – | – | – | – | – | – | – | – | – | 1.11 | 1.2 | 1.17 | 1.23 | 0.945
13 | IA-LM | 0.93 | 0.936 | 0.982 | 0.884 | – | – | – | – | – | – | – | – | – | 0.881 | 0.831 | 0.315 | 0.373 | 0.2
14 | Calu-6 | 0.592 | 0.59 | 0.594 | 0.556 | – | – | – | – | – | – | – | – | – | 1.2 | 0.981 | 0.629 | 0.844 | 0.222
15 | NCI-H1648 | – | 0.765 | – | 1.05 | – | – | – | – | – | – | – | – | – | – | – | – | – | –
16 | NCI-H1623 | – | – | – | – | 0.497 | 0.576 | 0.489 | 0.548 | 0.602 | 0.619 | 0.572 | 0.587 | 0.621 | – | – | – | – | –
17 | NCI-H1703 | 0.5 | 0.587 | 0.389 | 0.516 | – | – | – | – | – | – | – | – | – | 0.763 | 0.393 | 0.389 | 0.246 | 0.286
18 | ChaGo-K-1 | 0.469 | 0.417 | 0.385 | 0.401 | 0.366 | 0.561 | 0.542 | 0.588 | 0.421 | 0.494 | 0.535 | 0.515 | 0.575 | – | – | – | – | –
19 | LCLC-103H | 0.882 | 0.698 | 0.742 | 0.861 | 0.315 | 0.403 | 0.341 | 0.342 | 0.382 | 0.36 | 0.365 | 0.318 | 0.349 | – | – | – | – | –
20 | NCI-H1563 | – | – | – | – | 0.661 | 0.682 | 0.723 | 0.637 | 0.624 | 0.773 | 0.619 | 0.658 | 0.642 | 1.11 | 0.965 | 1.07 | 0.868 | 0.939
